# Where two headings read alike, the source gives them in different places.
# How the values were obtained:
# [1] = tested on: MCL; conditions: cited from earlier work; for response rates: relapsed MCL, targeted therapies
# [2] = tested on: DLBCL; conditions: cited from earlier work
# [3] = molecular target: T1, BAFF-R (Homo sapiens, UniProt Q96RJ3); assay: Phase Ib study CVAY736Y2102: tissue receptor occupancy; format: in vivo; conditions: VAY736 doses of 3 mg/kg or above, in combination with ibrutinib
# T1 construct: from tissue
# [4] = tested on: B cells; assay: three repeated dose toxicity studies; format: in vivo, cynomolgus monkeys
# Experimental: (§1) A rising single i.v. dose range finding (DRF), toxicity and TK/PD study and three repeated dose toxicity studies were performed with ianalumab in cynomolgus monkeys. B-cell levels were evaluated in the studies.
# [5] = tested on: DLBCL cell line SUDHL4; assay: in vivo DLBCL model: SUDHL4 implanted subcutaneously into SCID mice; conditions: 5 mg/kg or 50 mg/kg VAY736 intravenously weekly
# From the text: Vehicle and rituximab were used as controls.
# [6] = tested on: BAFF; assay: Phase Ib study CVAY736Y2102: free BAFF; format: in vivo, human; conditions: VAY736 in combination with ibrutinib
# [7] = tested on: B cells; format: in vivo, cynomolgus monkeys
# Experimental: as §1
# [8] = tested on: mature B cell; assay: repeat dose toxicity study in mice: healthy B-cell levels; format: in vivo, CD-1 mice
# Experimental: CD-1 mice were administered 0 mg/kg or 100 mg/kg of ianalumab by intravenous administration weekly for 13 weeks, followed by an 11 week recovery period.
# [9] = tested on: SUDHL4 cells; assay: in vitro ADCC assay (Calcein AM-labeled SUDHL4 cells) with PBMC, pNK or NK3.3 effector cells; format: cell-based; conditions: for improvement in VAY736-induced ADCC with lenalidomide: 72 hr lenalidomide treatment
# Experimental: NK3.3 cells were collected, washed 1×, and incubated in starvation media with or without 3 uM lenalidomide. Cells were incubated for 48 hrs or 72 hrs, collected, spun down, and resuspended in assay buffer. 100 μl of NK3.3 cells at the designated E:T ratios were transferred to a 96 well plate with SUDHL4 cells and antibodies. The co-culture was incubated for 2 hrs.
# (§2) Frozen PBMC were thawed, or fresh PBMCs were isolated. If T cells were depleted, PBMC were used for a positive depletion of CD3 using CD3 beads (Miltenyi #130-050-101). Cells were washed 1×, and incubated in unstimulated media (phenol red free/glutamax/hepes/anti-penicillin anti-streptomycin/FBS) with or without 3 μM, 1 μM or 10 μM Lenalidomide. Cells were incubated for 24 hrs or 72 hrs. The supernatant was taken and frozen for IL2 analysis. In one study, for the 72 hr culture, 100 pg/ml IL2 was added to the culture for the last 24 hrs. Primary NK cells were isolated the day of the co-culture setup. 100 μl of PBMC or pNK cells at the designated E:T ratios were transferred to the 96 well plate with the SUDHL4 cells and antibodies. The co-culture was incubated for 3 hrs or 4 hrs.
# A total of 10e6 or 4e6 SUDHL4 cells were incubated with Calcein AM for 60 minutes. Cells were then washed 2× with 30 ml of media. Cells were counted, and resuspended to 0.15 e6/ml or 0.2 e6/ml, and in one study 40 ng/ml of IL2 was added. A total of 50 μl cells were then transferred to a 96 well plate. […] Effector cells were then added to the 96 well plate. The plate was then spun in a centrifuge without the brake at 200×g for 4 min, and the co-culture was incubated for 2 hrs, 3 hrs or 4 hrs. The plate was then spun without the brake at 1500 RPM for 4 min. 100 μl of the supernatant was moved to black 96 well plates (Corning, #3904) and fluorescence was recorded with a PerkinElmer Envision plate reader.
# [10] = tested on: IL2; assay: IL2 production in PBMC treated with lenalidomide; format: cell-based; conditions: 72 hr lenalidomide, PBMC with and without CD3+ cells (FIG. 8)
# Experimental: as §2
compound,measurement,setting,value
CO[C@H]1C[C@@H]2CC[C@@H](C)[C@@](O)(O2)C(=O)C(=O)N2CCCC[C@H]2C(=O)O[C@H]([C@H](C)C[C@@H]2CC[C@@H](OC(=O)C(C)(CO)CO)[C@H](OC)C2)CC(=O)[C@H](C)/C=C(\C)[C@@H](O)[C@@H](OC)C(=O)[C@H](C)C[C@H](C)/C=C/C=C/C=C/1C [temsirolimus],response rates,[1],improved response rates
brentuximab vedotin,ORR,[2]; CD30+ relapsed DLBCL,44%
polatuzumab vedotin,ORR,[2]; in combination with rituximab and bendamustine,70%
C=CC(=O)N1CCC[C@@H](n2nc(-c3ccc(Oc4ccccc4)cc3)c3c(N)ncnc32)C1 [ibrutinib],treatment-related adverse effects compared to temsirolimus,[1]; Phase III study,fewer treatment-related adverse effects
blinatumomab: bispecific antibody,response rates,[2]; DLBCL,35-50%
"VAY736: non-fucosylated human IgG1 kappa anti-BAFFR antibody with enhanced ADCC; heavy chain SEQ ID NO: 9, light chain SEQ ID NO: 10",tissue receptor occupancy,[3],> 99%
same,B cell depletion,[4],B cell depletion was observed at all dose levels
same,tumor growth compared to the vehicle control (tumor volume measurements over time),[5],significantly slowed tumor growth
same,free BAFF,[6],accumulated to steady state with no dose relationship
same,tolerability,"[7]; cynomolgus monkey, in vivo",well tolerated
same,dose that induced depletion of B cells,[7]; single i.v. dose,≥ 0.4 mg/kg
same,mature B cell depletion,[8]; 100 mg/kg intravenous weekly for 13 weeks,70-90%
same,B cell levels during the recovery period,[8]; 11 week recovery period after 100 mg/kg weekly for 13 weeks,recovered
same,ADCC in the presence of VAY736,"[9]; effector cells PBMC, pNK cells, NK3.3 cell line",potent ADCC
same,"VAY736-dependent specific lysis of SUDHL4 cells, dose dependence",[9]; various effector cells,dose-dependent
Nc1cccc2c1CN(C1CCC(=O)NC1=O)C2=O (stereo not drawn) [lenalidomide],IL2 production in PBMC,[10],IL2 produced by lenalidomide treatment by T cells
same,ORR,"[1]; heavily pre-treated population, Phase II study EMERGE",28%
same,ADCC with lenalidomide pretreatment,"[9]; NK3.3 effector cells, E:T 20:1 and 7:1, 72 hr and 48 hr pretreatment (FIGS. 5, 6)",Slight increases in ADCC
same,VAY736-induced ADCC with addition of lenalidomide,"[9]; NK3.3 effector cells, more prominent with 72 hr pretreatment at E:T 20:1 (FIG. 2A-2B)",Increases in VAY736-induced ADCC
same,VAY736-induced ADCC with lenalidomide pretreatment,"[9]; PBMC effector cells, 24 hrs pretreatment, E:T 2:1",only showed an enhancement at the highest concentration
same,VAY736-induced ADCC with lenalidomide pretreatment,"[9]; PBMC effector cells, 24 hrs pretreatment, E:T 10:1",enhanced VAY736-induced ADCC
same,VAY736-induced ADCC with lenalidomide pretreatment,"[9]; PBMC effector cells, 24 hrs pretreatment, E:T 20:1",only a slight enhancement
same,improvement in VAY736-induced ADCC with lenalidomide,"[9]; PBMC effector cells, E:T 2:1",evident
same,improvement in VAY736-induced ADCC with lenalidomide,"[9]; PBMC effector cells, E:T 6:1",less pronounced
same,VAY736-induced ADCC with lenalidomide,"[9]; PBMC effector cells, 72 hr, E:T 3:1, largely dose-independent, hampered with IL2 stimulation",increased VAY736-induced ADCC
same,dependence of the ADCC enhancement by lenalidomide on CD3+ T cells,"[9]; PBMC vs CD3+ depleted PBMC, 72 hr",dependent on the presence of CD3+ T cells
same,VAY736-induced ADCC with lenalidomide pretreatment,"[9]; pNK cells isolated from PBMC pretreated 24 hrs, more so with 10:1 and 20:1",enhanced VAY736-induced ADCC
same,VAY736-induced ADCC with lenalidomide pretreatment,"[9]; pNK cells, 72 hr Len pretreatment, E:T 1:1 and 1:3",enhanced VAY736-induced ADCC
same,VAY736-dependent percent specific lysis of SUDHL4 cells on addition of lenalidomide,[9]; various effector cells and treatment conditions,enhanced
CC(C)C[C@H](NC(=O)[C@H](Cc1ccccc1)NC(=O)c1cnccn1)B(O)O [bortezomib],response rates,[1],improved response rates
